“And” between values parts separate entries of the source, which are not always exact repeats. Equal entries are not always repeated.

These results are taken from US9918964B2, “Reducing platelet activation, aggregation and platelet-stimulated thrombosis or blood coagulation by reducing mitochondrial respiration” (priority 2010, dated 2018).

In one series the test system is platelets in whole blood. Nature of the series: Platelet function testing with the Hemostasis Mechanism Analyzer (HMA): clumping, sticking, clotting in whole blood. The series is classed as cell-based, human.
The test system of series [1] is mitochondria isolated from liver of tilapia (Sarotheridon mossambica). The class given is biochemical. The note with it: reversible if respiration rate after removing the inhibitor returned to greater than 75% of its value in the absence of inhibitor.
The subject of another series is mitochondria. Nature of the series: Hydrogen peroxide levels on mitochondrial inhibition (unpublished results). The source says:
Various experimental models of Parkinson's disease and other maladies have implicated mitochondrial dysfunction and excessive Reactive Oxygen Species (ROS) as possible contributors. Fortunately it is routine in the art to screen mitochondrial inhibitors or indeed any platelet inhibitor for hydrogen peroxide production in vitro, to select active agents that are suitable for long term administration as long as the production of hydrogen peroxide is not excessive.

Series [2] concerns mitochondria isolated from liver of tilapia (Sarotheridon mossambica). The class given is biochemical.

For tetrazole [Compound 93], in the series on platelets in whole blood, the “% clot time increase” value is 150% and 128% and 114%; the “% clump time increase” value is 211% and 194% and 116%; the “% stick time increase” value is 193% and 173% and 116%. For the same substance, in series [1], the “Reversible?” value is “reversible and Yes”. In the series on mitochondria, the hydrogen peroxide levels entry was “elevated levels of hydrogen peroxide”. For the same substance, the “IC50 (mg/ml) mitochondria inhibition” value in series [2] amounted to 31.5 mg/mL.
